Assay results from patent US20150105252A1, “SUBSTITUTED PYRAZOLES AS HERBICIDES” (E I DU PONT DE NEMOURS AND COMPANY, priority 2013, published 2015).

How the values were obtained:
[1] = test system: waterhemp; experiment: Test C preemergence; assay type: in vivo, Amaranthus rudis; details: for Waterhemp plant response rating: preemergence
Procedure, shortened: (§1)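 Postemergence values come from plants sprayed at the 1- to 4-leaf stage (2–18 cm) in peat moss–vermiculite medium; preemergence values from seeds treated in a loam–sand blend. Both evaluated visually against controls after 13–15 greenhouse days, scale 0–100.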

[2] = test system: galium; experiment: Test C preemergence; assay type: in vivo, Galium aparine; details: for Galium plant response rating: preemergence
Procedure, shortened: as §1

[3] = test system: wheat; experiment: Test C preemergence; assay type: in vivo, Triticum aestivum; details: for Wheat plant response rating: preemergence
Procedure, shortened: as §1

[4] = test system: corn; experiment: Test C preemergence; assay type: in vivo, Zea mays; details: for Corn plant response rating: preemergence
Procedure, shortened: as §1

[5] = test system: johnsongrass; experiment: Test C postemergence; assay type: in vivo, Sorghum halepense
Procedure, shortened: as §1

[6] = test system: wheat; experiment: Test C postemergence; assay type: in vivo, Triticum aestivum
Procedure, shortened: as §1

[7] = test system: lambsquarters; experiment: Test C postemergence; assay type: in vivo, Chenopodium album
Procedure, shortened: as §1

[8] = test system: oilseed rape; experiment: Test C preemergence; assay type: in vivo, Brassica napus; details: for Oilseed Rape plant response rating: preemergence
Procedure, shortened: as §1

[9] = test system: pigweed; experiment: Test C preemergence; assay type: in vivo, Amaranthus retroflexus; details: for Pigweed plant response rating: preemergence
Procedure, shortened: as §1

[10] = test system: chickweed; experiment: Test C postemergence; assay type: in vivo, Stellaria media
Procedure, shortened: as §1

[11] = test system: blackgrass; experiment: Test C preemergence; assay type: in vivo, Alopecurus myosuroides; details: for Blackgrass plant response rating: preemergence
Procedure, shortened: as §1

[12] = test system: ragweed; experiment: Test C preemergence; assay type: in vivo, Ambrosia elation; details: for Ragweed plant response rating: preemergence
Procedure, shortened: as §1

[13] = test system: foxtail, giant; experiment: Test C postemergence; assay type: in vivo, Setaria faberii
Procedure, shortened: as §1

[14] = test system: soybean; experiment: Test C preemergence; assay type: in vivo, Glycine max; details: for Soybean plant response rating: preemergence
Procedure, shortened: as §1

[15] = 31 g ai/ha, visual rating, scale 0 to 100 (0 no effect, 100 complete control), 13 to 15 days
[16] = 62 g ai/ha, scale 0 to 100 (0 no effect, 100 complete control), 13 to 15 days
[17] = 125 g ai/ha, scale 0 to 100, 0 is no effect, 100 is complete control
[18] = Postemergence, 31 g ai/ha, visually evaluated after 13 to 15 days
[19] = postemergence, 62 g ai/ha, scale 0 to 100
[20] = postemergence, 250 g ai/ha, scale 0 to 100 (0 no effect, 100 complete control)
[21] = postemergence, 125 g ai/ha, scale 0 to 100, 0 no effect, 100 complete control

CCc1cc(C(=O)NOC(C)C)nn1Cc1ccnc(OC(F)F)c1 [Compound 126]
Plant response rating (scale of 0 to 100), Waterhemp ([1]; Preemergence, 250 g ai/ha): 100 | Waterhemp plant response rating [1, 15]: 90 | Waterhemp plant response rating [1, 16]: 98 | Waterhemp plant response rating [1, 17]: 100 | Plant response rating (scale of 0 to 100), Galium ([2]; Preemergence, 250 g ai/ha): 100 | Galium plant response rating [2, 15]: 85 | Galium plant response rating [2, 16]: 98 | Galium plant response rating [2, 17]: 100 | Plant response rating (scale of 0 to 100), Wheat ([3]; Preemergence, 250 g ai/ha): 90 | Wheat plant response rating [3, 15]: 45 | Wheat plant response rating [3, 16]: 80 | Wheat plant response rating [3, 17]: 90 | Plant response rating (scale of 0 to 100), Corn ([4]; Preemergence, 250 g ai/ha): 98 | Corn plant response rating [4, 15]: 25 | Corn plant response rating [4, 16]: 65 | Corn plant response rating [4, 17]: 90 | Plant response rating (scale of 0 to 100 where 0 is no effect and 100 is complete control), Johnsongrass [5, 18]: 5 | Johnsongrass plant response rating [5, 19]: 10 | Plant response rating, Johnsongrass [5, 20]: 25 | Plant response rating, Johnsongrass [5, 21]: 20 | Plant response rating (scale of 0 to 100 where 0 is no effect and 100 is complete control), Wheat [6, 18]: 5 | Wheat plant response rating [6, 19]: 5 | Plant response rating, Wheat [6, 20]: 5 | Plant response rating, Wheat [6, 21]: 5 | Plant response rating (scale of 0 to 100 where 0 is no effect and 100 is complete control), Lambsquarters [7, 18]: 35 | Lambsquarters plant response rating [7, 19]: 70 | Plant response rating, Lambsquarters [7, 20]: 90 | Plant response rating, Lambsquarters [7, 21]: 80 | Plant response rating (scale of 0 to 100), Oilseed Rape ([8]; Preemergence, 250 g ai/ha): 100 | Oilseed Rape plant response rating [8, 15]: 85 | Oilseed Rape plant response rating [8, 16]: 100 | Oilseed Rape plant response rating [8, 17]: 100 | Plant response rating (scale of 0 to 100), Pigweed ([9]; Preemergence, 250 g ai/ha): 100 | Pigweed plant response rating [9, 15]: 100 | Pigweed plant response rating [9, 16]: 85 | Pigweed plant response rating [9, 17]: 100 | Plant response rating (scale of 0 to 100 where 0 is no effect and 100 is complete control), Chickweed [10, 18]: 60 | Chickweed plant response rating [10, 19]: 70 | Plant response rating, Chickweed [10, 20]: 85 | Plant response rating, Chickweed [10, 21]: 80 | Plant response rating (scale of 0 to 100), Blackgrass ([11]; Preemergence, 250 g ai/ha): 90 | Blackgrass plant response rating [11, 15]: 55 | Blackgrass plant response rating [11, 16]: 60 | Blackgrass plant response rating [11, 17]: 90 | Plant response rating (scale of 0 to 100), Ragweed ([12]; Preemergence, 250 g ai/ha): 90 | Ragweed plant response rating [12, 15]: 70 | Ragweed plant response rating [12, 16]: 100 | Ragweed plant response rating [12, 17]: 100 | Plant response rating (scale of 0 to 100 where 0 is no effect and 100 is complete control), Foxtail, Giant [13, 18]: 10 | Foxtail, Giant plant response rating [13, 19]: 20 | Plant response rating, Foxtail, Giant [13, 20]: 60 | Plant response rating, Foxtail, Giant [13, 21]: 20 | Plant response rating (scale of 0 to 100), Soybean ([14]; Preemergence, 250 g ai/ha): 98 | Soybean plant response rating [14, 15]: 25 | Soybean plant response rating [14, 16]: 40 | Soybean plant response rating [14, 17]: 75
